“And” between values parts separate entries of the source, which are not always exact repeats. Equal entries are not always repeated. Numbers after ± are expanded uncertainties.

For this data set the following is noted: 313.15 K; Liquid; Closed cell (Static) method.

For `CCOC(C)(C)C` [2-ethoxy-2-methylpropane], the “vapor or sublimation pressure” value was 31.64 ± 0.12 kPa and 31.65 ± 0.12 kPa. Take `CCCCCCC` [heptane]: the “vapor or sublimation pressure” value was 12.31 ± 0.056 kPa and 12.32 ± 0.056 kPa.

Consider `C=CCCCC` [hex-1-ene], for which the “vapor or sublimation pressure” value was 44.96 ± 0.24 kPa and 44.95 ± 0.24 kPa.

In general, vapor or sublimation pressure refers to the equilibrium pressure above the liquid or solid.
